Results from US9339038B2, “Herbicidal composition” (priority 2012, dated 2016).
Counter-ions that a name gives are not always drawn.

Assays:
Type in all cases: in vivo
[1] = system: green kyllinga (Kyllinga brevifolia Rottb. var. leiolepis); test: Test Example 10: foliar treatment of green kyllinga (height 6 to 7 cm), visual growth inhibition rate; details: 27th day after treatment
Procedure: (§1) Upland field soil was put into a 1/1,000,000 ha pot, and rhizomes of green kyllinga (Kyllinga brevifolia Rottb. var. leiolepis) were planted. When the green kyllinga reached a height of from 6 to 7 cm, predetermined amounts of Lentagran WP (tradename) and WG formulation containing as an active ingredient amicarbazone having the same mode of action as pyridate (tradename: Dinamic, manufactured by Arysta Life Science) were diluted with water (in an amount corresponding to 2,000 L/ha) and applied for foliar treatment by a small sprayer. Separately, upland field soil was put into a 1/300,000 ha pot, and turf of manilagrass (Zoysia matrella (L.) Merr.) was put. After the manilagrass took root, predetermined amounts of Lentagran WP (tradename) and Dinamic (tradename) were diluted with water (in an amount corresponding to 2,000 L/ha) and applied for foliar treatment by a small sprayer.
(§2) On the 27th day after treatment, the state of growth of green kyllinga was visually observed, and on the 28th day after treatment, the state of growth of the manilagrass was visually observed, to determine the growth inhibition rate (%).

[2] = system: summer grass (Digitaria ciliaris (Retz.) Koeler); test: Test Example 8: foliar treatment of potted summer grass, visual growth inhibition rate on 14th day; details: read-out: Growth inhibition rate (%) of summer grass Measured value
Description: Upland field soil was put into a 1/1,000,000 ha pot, and seeds of summer grass (Digitaria ciliaris (Retz.) Koeler) were sown.

[3] = system: manilagrass (Zoysia matrella (L.) Merr.); test: Test Example 10: foliar treatment of manilagrass turf, visual growth inhibition rate (safety for turfgrass); details: for Growth inhibition rate (%) of manilagrass: foliar, 28th day after treatment
Procedure: as §1, §2

[4] = system: persian speedwell (Veronica persica Poir.); test: Test Example 6: foliar treatment of potted persian speedwell, visual growth inhibition rate; details: 14th day after treatment, read-out: Growth inhibition rate (%) of persian speedwell Measured value
Procedure: (§3) Upland field soil was put into a 1/1,000,000 ha pot, and seeds of persian speedwell (Veronica persica Poir.) were sown. When the persian speedwell reached 4.3 to 5.2-leaf stage, predetermined amounts of EC formulation containing pyridate as an active ingredient and ONEHOPE NYUZAI (tradename) were diluted with water (in an amount corresponding to 300 L/ha) and applied for foliar treatment by a small sprayer.
(§4) On the 14th day after treatment, the state of growth of the persian speedwell was visually observed to determine the growth inhibition rate (%). The growth inhibition rate (%) (measured value) and the growth inhibition rate (%) calculated in the same manner as in the above Test Example 1 are shown in Table 6.

[5] = system: green kyllinga (Kyllinga brevifolia Rottb. var. leiolepis); test: Test Example 3: foliar treatment of green kyllinga at 5-leaf stage, visual growth inhibition rate; details: Cyperus brevifolius, 21st day after treatment
Procedure: (§5) Upland field soil was put into a 1/1,000,000 ha pot, and rhizomes of green kyllinga (Kyllinga brevifolia Rottb. var. leiolepis) were planted. When the green kyllinga reached 5-leaf stage, a predetermined amount of EC formulation containing pyridate as an active ingredient was diluted with water (in an amount corresponding to 2,000 L/ha) and applied for foliar treatment by a small sprayer.
On the 21st day after treatment, the state of growth of the green kyllinga was visually observed to determine the growth inhibition rate (%).

[6] = system: green kyllinga (Kyllinga brevifolia Rottb. var. leiolepis); test: Test Example 5: autumn foliar treatment of green kyllinga, visual growth inhibition rate on 220th day; details: Cyperus brevifolius, 220th day after treatment
Procedure: as §5, with “1/300,000” for “1/1,000,000”, “In” for “When”, “autumn of the next year,” for “green kyllinga reached 5-leaf stage,”
On the 220th day after treatment, the state of growth of the green kyllinga was visually observed to determine the growth inhibition rate (%).

[7] = system: prickly sida (Sida spinosa L.); test: Test Example 2: foliar treatment of potted prickly sida, visual growth inhibition rate; details: 14th day after treatment, read-out: Growth inhibition rate (%) of prickly sida Measured value
Procedure: Upland field soil was put into a 1/1,000,000 ha pot, and seeds of prickly sida (Sida spinosa L.) were sown. When the prickly sida reached 5.5 to 5.8-leaf stage, predetermined amounts of a wettable powder containing pyridate as an active ingredient (tradename: Lentagran WP, manufactured by BCP) and ONEHOPE NYUZAI (tradename) were diluted with water in an amount of corresponding to 1,000 L/ha and applied for foliar treatment by a small sprayer.
as §4, with “prickly sida” for “persian speedwell”, “2.” for “6.”

[8] = system: summer grass (Digitaria ciliaris (Retz.) Koeler); test: Test Example 7: foliar treatment of potted summer grass, visual growth inhibition rate on 7th day; details: 7th day after treatment
Procedure: as §3, with “summer grass (Digitaria ciliaris (Retz.) Koeler)” for “persian speedwell (Veronica persica Poir.)”, “summer grass” for “persian speedwell”, “4.0” for “4.3”, “5.0-leaf” for “5.2-leaf”, “Monument WG” for “ONEHOPE NYUZAI”
as §4, with “7th” for “14th”, “summer grass” for “persian speedwell”, “7.” for “6.”

[9] = system: green kyllinga (Kyllinga brevifolia Rottb. var. leiolepis); test: Test Example 1: foliar treatment of potted green kyllinga in heading stage, visual growth inhibition rate
Description: When the herbicidal activity in a case where two active ingredients are combined, is larger than the simple sum of the respective herbicidal activities of the two active ingredients (the expected activity), it is called a synergistic effect. The activity expected by the combination of two active ingredients can be calculated as follows (Colby S. R., “Weed”, vol. 15, p. 20-22, 1967). E=(α+β)−(αβ)/100 where α: growth inhibition rate when treated with x (g/ha) of herbicide X,
β: growth inhibition rate when treated with y (g/ha) of herbicide Y,
E: growth inhibition rate expected when treated with x (g/ha) of herbicide X and y (g/ha) of herbicide Y.
That is, when the actual growth inhibition rate (measured value) is larger than the growth inhibition rate by the above calculation (calculated value), the activity by the combination can be regarded as showing a synergistic effect.
Upland field soil was put into a 1/1,000,000 ha pot, and rhizomes of green kyllinga (Kyllinga brevifolia Rottb. var. leiolepis) were planted. On the 59th day after planting, to the green kyllinga in heading stage, predetermined amounts of EC formulation containing pyridate as an active ingredient (tradename: Pyridate 600EC, manufactured by BCP), WG formulation containing flazasulfuron as an active ingredient (tradename: SHIBAGEN DF, manufactured by Ishihara Sangyo Kaisha, Ltd.), WG formulation containing trifloxysulfuron Na salt as an active ingredient (tradename: Monument WG, manufactured by Syngenta Japan K.K.), SC formulation containing nicosulfuron as an active ingredient (tradename: ONEHOPE NYUZAI, manufactured by Ishihara Sangyo Kaisha, Ltd.), WG formulation containing halosulfuron-methyl as an active ingredient (tradename: INPOOL DF, manufactured by Nissan Chemical Industries, Ltd.) and WG formulation containing chlorimuron-ethyl as an active ingredient (tradename: ATTRACTIVE, manufactured by MARUWA Biochemical Co., Ltd.) were diluted with water in an amount corresponding to 2,000 L/ha, and applied for foliar treatment by a small sprayer.
On the 14th day after treatment, the state of growth of the green kyllinga was visually observed to determine the growth inhibition rate (%) in accordance with the following evaluation standard. The growth inhibition rate (%) (measured value) and the growth inhibition rate (%) (calculated value) calculated by the Colby's formula are shown in Table 1.
Growth inhibition rate (%)=0 (equivalent to the non-treated area) to 100 (complete kill)

[10] = system: green kyllinga (Kyllinga brevifolia Rottb. var. leiolepis); test: Test Example 4: single or repeated foliar treatment of green kyllinga (height 5 to 7 cm), visual growth inhibition rate; details: Cyperus brevifolius, 21st day after first treatment
Procedure: as §5, with “a height of from 5 to 7 cm,” for “5-leaf stage,”, “sprayer. Further, on the 7th day after the foliar treatment, second treatment was carried out in the same manner on part of the green kyllinga.” for “sprayer.”
On the 21st day after the first treatment, the state of growth of the green kyllinga was visually observed to determine the growth inhibition rate (%).

[11] = Cyperus brevifolius, read-out: Growth inhibition rate (%) of green kyllinga Measured value

CCCCCCCCSC(=O)Oc1cc(Cl)nnc1-c1ccccc1 [Pyridate, O-6-chloro-3-phenylpyridazin-4-yl S-octylthiocarbonate]
inhibition at 2000 g/ha ([1]; Cyperus brevifolius, dose 2000 g/ha): 76%
inhibition at 4000 g/ha ([1]; Cyperus brevifolius, dose 4000 g/ha): 94%
inhibition at 3000 g/ha ([2]; dose 3000 g/ha, 14th day after treatment): 50%
Growth inhibition rate (%) of manilagrass ([3]; dose 2000 g/ha): 5%
Growth inhibition rate (%) of manilagrass ([3]; dose 4000 g/ha): 15%
Growth inhibition rate (%) of manilagrass ([3]; dose 8000 g/ha): 15%
safety for turfgrass ([3]; practical doses, summary of Table 9): high safety for turfgrass
inhibition at 300 g/ha ([4]; dose 300 g/ha): 70%
inhibition at 1200 g/ha ([5]; dose 1200 g/ha): 90%
inhibition at 2400 g/ha ([5]; dose 2400 g/ha): 100%
inhibition at 2000 g/ha ([6]; dose 2000 g/ha): 100%
inhibition at 4000 g/ha ([6]; dose 4000 g/ha): 100%
inhibition at 300 g/ha ([7]; dose 300 g/ha): 38%
inhibition at 300 g/ha ([8]; Digitaria ciliaris, dose 300 g/ha, read-out: Growth inhibition rate (%) of summer grass Measured value): 8%
inhibition at 500 g/ha ([9]; Cyperus brevifolius, dose 500 g/ha, 14th day after treatment, read-out: Growth inhibition rate (%) of green kyllinga Measured value): 18%
inhibition at 2000 g/ha ([9]; Cyperus brevifolius, dose 2000 g/ha, 14th day after treatment, read-out: Growth inhibition rate (%) of green kyllinga Measured value): 50%
inhibition at 1200 g/ha ([10]; 1st treatment 1200 g/ha, 2nd treatment 1200 g/ha on 7th day): 100%
inhibition at 2400 g/ha ([10]; 1st treatment 2400 g/ha, no 2nd treatment): 87%
inhibition at 3600 g/ha ([10]; 1st treatment 3600 g/ha, no 2nd treatment): 89%

CC(C)c1nn(C(=O)NC(C)(C)C)c(=O)n1N [Amicarbazone, amicarbazone]
Growth inhibition rate (%) of green kyllinga ([1]; dose 400 g/ha): 30%
Growth inhibition rate (%) of green kyllinga ([1]; dose 800 g/ha): 86%
Growth inhibition rate (%) of manilagrass ([3]; dose 800 g/ha): 30%

COc1cc(OC)nc(NC(=O)NS(=O)(=O)c2ncccc2C(=O)N(C)C)n1 [Nicosulfuron, 2-(4,6-dimethoxypyrimidin-2-ylcarbamoylsulfamoyl)-N,N-dimethylnicotinamide]
inhibition at 100 g/ha ([4]; dose 100 g/ha): 5%
inhibition at 15 g/ha ([7]; dose 15 g/ha): 30%
inhibition at 80 g/ha ([9]; Cyperus brevifolius, dose 80 g/ha, 14th day after treatment, read-out: Growth inhibition rate (%) of green kyllinga Measured value): 15%

COC(=O)c1c(Cl)nn(C)c1S(=O)(=O)NC(=O)Nc1nc(OC)cc(OC)n1 [Halosulfuron-methyl, halosulfuron-methyl]
inhibition at 150 g/ha [2]: 0%
inhibition at 375 g/ha [9, 11]: 10%

CCOC(=O)c1ccccc1S(=O)(=O)NC(=O)Nc1nc(Cl)cc(OC)n1 [Chlorimuron-ethyl, chlorimuron-ethyl]
inhibition at 100 g/ha [9, 11]: 18%

COc1cc(OC)nc(NC(=O)NS(=O)(=O)c2ncccc2OCC(F)(F)F)n1 [Trifloxysulfuron Na salt]
Growth inhibition rate (%) of summer grass Measured value ([8]; dose 100 g/ha): 40%
Growth inhibition rate (%) of green kyllinga Measured value ([9]; dose 45 g/ha, 14th day after treatment): 15%

COc1cc(OC)nc(NC(=O)NS(=O)(=O)c2ncccc2C(F)(F)F)n1 [Flazasulfuron, 1-(4,6-dimethoxypyrimidin-2-yl)-3-(3-trifluoromethyl-2-pyridylsulfonyl)urea]
inhibition at 50 g/ha ([9]; Cyperus brevifolius, dose 50 g/ha, 14th day after treatment, read-out: Growth inhibition rate (%) of green kyllinga Measured value): 33%
